14 compounds from PubChem BioAssay AID328 (DTP/NCI, 2004) can be followed below.

The subject of the assay is BDF1 mice, P388 leukemia ip, median survival T/C. The assay can be described thus: NCI In Vivo Anticancer Drug Screen. Data for tumor model P388 Leukemia (intraperitoneal) in B6D2F1 (BDF1) mice. The note with it: endpoint: median survival time, higher = longer survival. The procedure, abridged:
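Reported as T/C, where T is the survival measurement in dosed animals and C the same measurement in vehicle controls.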

Where [1] appears, read: dose: 25.0 mg/kg/injection, schedule: Q04DX003 (ip), vehicle: Klucel (hydroxypropylcellulose) (HPC).
Where [2] appears, read: dose: 50.0 mg/kg/injection, schedule: Q04DX003 (ip), vehicle: Klucel (hydroxypropylcellulose) (HPC).
Where [3] appears, read: dose: 100.0 mg/kg/injection, schedule: Q04DX003 (ip), vehicle: Klucel (hydroxypropylcellulose) (HPC).
The mark [4] stands for this setting: dose: 100.0 mg/kg/injection, schedule: Q01DX009 (ip), vehicle: Klucel (hydroxypropylcellulose) (HPC).
[5] abbreviates: dose: 200.0 mg/kg/injection, schedule: Q04DX003 (ip), vehicle: Klucel (hydroxypropylcellulose) (HPC).

SMILES strings stand for the structures. “And” between values parts separate entries of the source, which are not always exact repeats. Equal entries are not always repeated. Inconclusive results and toxic doses are left out.

As to `N=P(N[P+](N)(c1ccccc1)c1ccccc1)(c1ccccc1)c1ccccc1`, the T/C was 117 % of control (dose: 6.25 mg/kg/injection, schedule: Q01DX001 (ip), vehicle: saline); 100 % of control (dose: 8.2 mg/kg/injection, schedule: Q01DX001 (ip), vehicle: saline); 100 % of control (dose: 12.5 mg/kg/injection, schedule: Q01DX001 (ip), vehicle: saline); 104 % of control (dose: 18.0 mg/kg/injection, schedule: Q01DX001 (ip), vehicle: saline); 116 % of control (dose: 25.0 mg/kg/injection, schedule: Q01DX001 (ip), vehicle: saline).
On to `CC(CCc1cccc2ccccc12)(C(=O)O)C(=O)O`, for which the T/C (dose: 100.0 mg/kg/injection, schedule: Q04DX003 (ip), vehicle: saline sonified) was 100 % of control and the T/C (dose: 200.0 mg/kg/injection, schedule: Q04DX003 (ip), vehicle: saline sonified) was 91 % of control.
For `CC(=O)C1(O)Cc2c(O)c3c(c(O)c2C(OC2CC(N)C(O)C(C)O2)C1)C(=O)c1ccccc1C3=O` (centres undefined), the T/C by setting is: (dose: 324.0 micrograms/kg/injection, schedule: Q04DX003 (ip), vehicle: water) 177 % of control; (dose: 540.0 micrograms/kg/injection, schedule: Q04DX003 (ip), vehicle: water) 220 % of control; (dose: 900.0 micrograms/kg/injection, schedule: Q04DX003 (ip), vehicle: water) 116 % of control; (dose: 1500.0 micrograms/kg/injection, schedule: Q04DX003 (ip), vehicle: water) 90 % of control.
Take `COc1cc2cc(c1Cl)N(C)C(=O)CC(OC(C)=O)C1(C)OC1C(C)C1CC(O)(NC(=O)O1)C(OC)C=C/C=C(\C)C2` (centres undefined): the T/C (dose: 0.2 micrograms/kg/injection, schedule: Q01DX009 (ip), vehicle: saline + alcohol) is 90 % of control; the T/C (dose: 0.4 micrograms/kg/injection, schedule: Q01DX009 (ip), vehicle: saline + alcohol) was 95 % of control; the T/C (dose: 0.8 micrograms/kg/injection, schedule: Q01DX009 (ip), vehicle: saline + alcohol) was 95 % of control and 110 % of control; the T/C (dose: 1.5 micrograms/kg/injection, schedule: Q01DX009 (ip), vehicle: saline + alcohol) is 150 % of control; the T/C (dose: 1.6 micrograms/kg/injection, schedule: Q01DX009 (ip), vehicle: saline + alcohol) is 100 % of control; the T/C (dose: 3.1 micrograms/kg/injection, schedule: Q01DX009 (ip), vehicle: saline + alcohol) is 110 % of control. In addition, the T/C was 150 % of control (dose: 6.2 micrograms/kg/injection, schedule: Q01DX009 (ip), vehicle: saline + alcohol); 158 % of control (dose: 12.5 micrograms/kg/injection, schedule: Q01DX009 (ip), vehicle: saline + alcohol); 170 % of control and 173 % of control (dose: 25.0 micrograms/kg/injection, schedule: Q01DX009 (ip), vehicle: saline + alcohol); 183 % of control (2×) and 190 % of control (dose: 50.0 micrograms/kg/injection, schedule: Q01DX009 (ip), vehicle: saline + alcohol); 230 % of control and 204 % of control (dose: 100.0 micrograms/kg/injection, schedule: Q01DX009 (ip), vehicle: saline + alcohol); 100 % of control (dose: 200.0 micrograms/kg/injection, schedule: Q01DX009 (ip), vehicle: saline + alcohol).
As to `O=c1[nH]c2ccc(I)cc2c(=O)o1`, the T/C by setting is: (dose: 100.0 mg/kg/injection, schedule: Q04DX003 (ip), vehicle: saline with Tween-80) 109 % of control; (dose: 200.0 mg/kg/injection, schedule: Q04DX003 (ip), vehicle: saline with Tween-80) 104 % of control; (dose: 400.0 mg/kg/injection, schedule: Q04DX003 (ip), vehicle: saline with Tween-80) 109 % of control.
`CCCNC(=O)OCc1c(COC(=O)NCCC)c(-c2ccc(Cl)c(Cl)c2)n2c1CCC2`: the T/C was 151 % of control (dose: 25.0 mg/kg/injection, schedule: Q01DX009 (ip), vehicle: other) and 172 % of control (dose: 50.0 mg/kg/injection, schedule: Q01DX009 (ip), vehicle: other).
For `CCCCCCCCCCCCNC(=O)CC(O)(CC(=O)O)C(=O)O` (centres undefined), the T/C reads like this: under setting [1], 111 % of control; under setting [2], 88 % of control; under setting [3], 92 % of control.
Turning to `CN1/C(=C/C=C/N=C(C#N)C#N)C(C)(C)c2ccccc21`, the T/C was 104 % of control (dose: 50.0 mg/kg/injection, schedule: Q01DX009 (ip), vehicle: saline with Tween-80); 96 % of control (dose: 100.0 mg/kg/injection, schedule: Q01DX009 (ip), vehicle: saline with Tween-80); 96 % of control (dose: 200.0 mg/kg/injection, schedule: Q01DX009 (ip), vehicle: saline with Tween-80).
In the case of `CC(C)CCC[C@@H](C)[C@H]1CC[C@H]2[C@@H]3CC=C4C[C@@H](OC(=O)Cc5ccc(N(CCCl)CCCl)cc5)CC[C@]4(C)[C@H]3CC[C@]12C`, the T/C reads like this: (dose: 6.25 mg/kg/injection, schedule: Q01DX010 (sc), vehicle: steriod suspending solution) 87 % of control; (dose: 12.5 mg/kg/injection, schedule: Q01DX010 (sc), vehicle: steriod suspending solution) 91 % of control; (dose: 25.0 mg/kg/injection, schedule: Q01DX010 (sc), vehicle: steriod suspending solution) 91 % of control; (dose: 50.0 mg/kg/injection, schedule: Q01DX010 (oral), vehicle: steriod suspending solution) 104 % of control; (dose: 50.0 mg/kg/injection, schedule: Q01DX010 (sc), vehicle: steriod suspending solution) 92 % of control; (dose: 100.0 mg/kg/injection, schedule: Q01DX010 (oral), vehicle: steriod suspending solution) 118 % of control. The T/C is 111 % of control (dose: 100.0 mg/kg/injection, schedule: Q01DX010 (sc), vehicle: steriod suspending solution); 107 % of control (dose: 200.0 mg/kg/injection, schedule: Q01DX010 (sc), vehicle: steriod suspending solution); 172 % of control (dose: 400.0 mg/kg/injection, schedule: Q01DX010 (oral), vehicle: steriod suspending solution); 100 % of control (dose: 400.0 mg/kg/injection, schedule: Q01DX010 (sc), vehicle: steriod suspending solution); 118 % of control (dose: 800.0 mg/kg/injection, schedule: Q01DX010 (oral), vehicle: steriod suspending solution).
In the case of `Cc1noc2nc[nH]c(=O)c12`, the T/C is 107 % of control (dose: 100.0 mg/kg/injection, schedule: Q04DX002 (ip), vehicle: saline with Tween-80); 106 % of control (dose: 200.0 mg/kg/injection, schedule: Q04DX002 (ip), vehicle: saline with Tween-80); 94 % of control (dose: 400.0 mg/kg/injection, schedule: Q04DX002 (ip), vehicle: saline with Tween-80).
On to `Cc1ccccc1C(Br)C1=CC(C)(C)c2ccccc2C1=O` (centres undefined), for which the T/C was 95 % of control under setting [4]; 100 % of control under setting [3]; 100 % of control (dose: 200.0 mg/kg/injection, schedule: Q01DX009 (ip), vehicle: Klucel (hydroxypropylcellulose) (HPC)); 104 % of control under setting [5]; 95 % of control (dose: 400.0 mg/kg/injection, schedule: Q01DX009 (ip), vehicle: Klucel (hydroxypropylcellulose) (HPC)); 100 % of control (dose: 400.0 mg/kg/injection, schedule: Q04DX003 (ip), vehicle: Klucel (hydroxypropylcellulose) (HPC)).
As to `O=S(=O)(O)N(O)c1ccccc1`, the T/C was 105 % of control (dose: 25.0 mg/kg/injection, schedule: Q01DX001 (ip), vehicle: saline with Tween-80); 102 % of control (dose: 50.0 mg/kg/injection, schedule: Q01DX001 (ip), vehicle: saline with Tween-80); 100 % of control (dose: 100.0 mg/kg/injection, schedule: Q01DX001 (ip), vehicle: saline with Tween-80); 99 % of control and 105 % of control (dose: 200.0 mg/kg/injection, schedule: Q01DX001 (ip), vehicle: saline with Tween-80); 101 % of control (dose: 400.0 mg/kg/injection, schedule: Q01DX001 (ip), vehicle: saline with Tween-80).
On to `CC(C)(C)c1cc([N+](=O)[O-])cc(C(C)(C)C)c1O`, for which the T/C was 90 % of control and 100 % of control (dose: 25.0 mg/kg/injection, schedule: Q01DX009 (ip), vehicle: Klucel (hydroxypropylcellulose) (HPC)); 100 % of control under setting [1]; 96 % of control and 109 % of control (dose: 50.0 mg/kg/injection, schedule: Q01DX009 (ip), vehicle: Klucel (hydroxypropylcellulose) (HPC)); 86 % of control and 88 % of control under setting [2]; 95 % of control and 96 % of control under setting [4]; 86 % of control and 88 % of control under setting [3]. Under setting [5], the T/C was 92 % of control.
As for `CC1=CC(c2ccccc2)=CC(C)(C)C1` (tested in a mixture with another compound), the T/C was 104 % of control (dose: 25.0 mg/kg/injection, schedule: Q01DX009 (ip), vehicle: saline sonified); 109 % of control (dose: 50.0 mg/kg/injection, schedule: Q01DX009 (ip), vehicle: saline sonified); 109 % of control (dose: 100.0 mg/kg/injection, schedule: Q01DX009 (ip), vehicle: saline sonified).
